{
  "source": "the NIST ThermoML archive (doi:10.1021/acs.jced.8b00236)",
  "key": {"[1]": {"test": "mn = molality of the nth substance listed, in mol/kg", "conditions": "75 kPa, Liquid; for viscosity: Capillary tube (Ostwald / Ubbelohde) method; for speed of sound: Frequency=3 MHz, Single path-length method; for mass density: Vibrating tube method"}, "[2]": {"conditions": "75 kPa, Liquid, Capillary tube (Ostwald / Ubbelohde) method"}},
  "note": "Several values for one entry are separate records, joined by “and”; a condition that tells them apart may be missing. Identical values can stand only once. Numbers after ± are expanded uncertainties.",
  "data": [
    {"molecule": "[Cl-].[Na+]", "note": "[sodium chloride] + O", "values": [
      {"measurement": "viscosity", "setting": "[1]; 288.15 K, m1 = 0.15", "value": "1.156 ± 0.024 mPa·s and 1.158 ± 0.024 mPa·s"},
      {"measurement": "viscosity", "setting": "[1]; 288.15 K, m1 = 0.25", "value": "1.166 ± 0.024", "unit": "mPa·s"},
      {"measurement": "speed of sound", "setting": "[1]; 288.15 K, m1 = 0.15", "value": "1476.6 ± 4 m/s and 1476.5 ± 4 m/s"},
      {"measurement": "speed of sound", "setting": "[1]; 288.15 K, m1 = 0.25", "value": "1483.6 ± 4 m/s and 1483.4 ± 4 m/s and 1483.3 ± 4 m/s"},
      {"measurement": "mass density", "setting": "[1]; 288.15 K, m1 = 0.15", "value": "1005.46 ± 0.3 kg/m3 and 1005.45 ± 0.3 kg/m3 and 1005.36 ± 0.3 kg/m3"},
      {"measurement": "mass density", "setting": "[1]; 288.15 K, m1 = 0.25", "value": "1009.51 ± 0.3", "unit": "kg/m3"},
      {"measurement": "viscosity", "setting": "[1]; 293.15 K, m1 = 0.15", "value": "1.016 ± 0.021", "unit": "mPa·s"},
      {"measurement": "viscosity", "setting": "[1]; 293.15 K, m1 = 0.25", "value": "1.025 ± 0.021", "unit": "mPa·s"},
      {"measurement": "speed of sound", "setting": "[1]; 293.15 K, m1 = 0.15", "value": "1492.3 ± 4 m/s and 1492.2 ± 4 m/s"},
      {"measurement": "mass density", "setting": "[1]; 293.15 K, m1 = 0.15", "value": "1004.48 ± 0.3 kg/m3 [middle of 4 runs]"},
      {"measurement": "mass density", "setting": "[1]; 293.15 K, m1 = 0.25", "value": "1008.5 ± 0.3 kg/m3 and 1008.51 ± 0.3 kg/m3"},
      {"measurement": "viscosity", "setting": "[1]; 298.15 K, m1 = 0.15", "value": "0.905 ± 0.019 mPa·s and 0.9049 ± 0.019 mPa·s and 0.906 ± 0.019 mPa·s"},
      {"measurement": "viscosity", "setting": "[1]; 298.15 K, m1 = 0.25", "value": "0.913 ± 0.019", "unit": "mPa·s"},
      {"measurement": "speed of sound", "setting": "[1]; 298.15 K, m1 = 0.15", "value": "1506.2 ± 4 m/s and 1506 ± 4 m/s and 1506.1 ± 4 m/s"},
      {"measurement": "speed of sound", "setting": "[1]; 298.15 K, m1 = 0.25", "value": "1512.5 ± 4 m/s and 1512.3 ± 4 m/s and 1512.2 ± 4 m/s"},
      {"measurement": "mass density", "setting": "[1]; 298.15 K, m1 = 0.15", "value": "1003.26 ± 0.3 kg/m3 and 1003.27 ± 0.3 kg/m3 and 1003.18 ± 0.3 kg/m3"},
      {"measurement": "mass density", "setting": "[1]; 298.15 K, m1 = 0.25", "value": "1007.26 ± 0.3", "unit": "kg/m3"},
      {"measurement": "viscosity", "setting": "[1]; 303.15 K, m1 = 0.15", "value": "0.811 ± 0.017 mPa·s [middle of 4 runs]"},
      {"measurement": "viscosity", "setting": "[1]; 303.15 K, m1 = 0.25", "value": "0.819 ± 0.017", "unit": "mPa·s"},
      {"measurement": "speed of sound", "setting": "[1]; 303.15 K, m1 = 0.15", "value": "1518.2 ± 4 m/s and 1518.1 ± 4 m/s"},
      {"measurement": "speed of sound", "setting": "[1]; 303.15 K, m1 = 0.25", "value": "1524.3 ± 4 m/s and 1524.1 ± 4 m/s and 1524 ± 4 m/s"},
      {"measurement": "mass density", "setting": "[1]; 303.15 K, m1 = 0.15", "value": "1001.83 ± 0.3 kg/m3 [middle of 4 runs]"},
      {"measurement": "mass density", "setting": "[1]; 303.15 K, m1 = 0.25", "value": "1005.78 ± 0.3 kg/m3 and 1005.79 ± 0.3 kg/m3"},
      {"measurement": "viscosity", "setting": "[1]; 308.15 K, m1 = 0.15", "value": "0.731 ± 0.015 mPa·s and 0.7306 ± 0.015 mPa·s and 0.732 ± 0.015 mPa·s"},
      {"measurement": "viscosity", "setting": "[1]; 308.15 K, m1 = 0.25", "value": "0.739 ± 0.015", "unit": "mPa·s"},
      {"measurement": "speed of sound", "setting": "[1]; 308.15 K, m1 = 0.15", "value": "1528.7 ± 4 m/s and 1528.6 ± 4 m/s"},
      {"measurement": "speed of sound", "setting": "[1]; 308.15 K, m1 = 0.25", "value": "1534.3 ± 4 m/s [middle of 5 runs]"},
      {"measurement": "mass density", "setting": "[1]; 308.15 K, m1 = 0.15", "value": "1000.11 ± 0.3 kg/m3 [middle of 5 runs]"},
      {"measurement": "mass density", "setting": "[1]; 308.15 K, m1 = 0.25", "value": "1004.12 ± 0.3 kg/m3 and 1004.11 ± 0.3 kg/m3"}
    ]},
    {"molecule": "O", "note": "[water]", "values": [
      {"measurement": "viscosity", "setting": "[2]; 288.15 K", "value": "1.146 ± 0.024", "unit": "mPa·s"},
      {"measurement": "viscosity", "setting": "[2]; 293.15 K", "value": "1.007 ± 0.021 mPa·s and 1.004 ± 0.021 mPa·s"},
      {"measurement": "viscosity", "setting": "[2]; 298.15 K", "value": "0.893 ± 0.019 mPa·s and 0.8929 ± 0.019 mPa·s"},
      {"measurement": "viscosity", "setting": "[2]; 303.15 K", "value": "0.797 ± 0.017 mPa·s and 0.7965 ± 0.017 mPa·s"},
      {"measurement": "viscosity", "setting": "[2]; 308.15 K", "value": "0.719 ± 0.015 mPa·s and 0.7187 ± 0.015 mPa·s"}
    ]},
    {"molecule": "O", "note": "[water] + NCC(=O)O", "values": [
      {"measurement": "viscosity", "setting": "[1]; 288.15 K, m2 = 0", "value": "1.146 ± 0.024", "unit": "mPa·s"},
      {"measurement": "viscosity", "setting": "[1]; 293.15 K, m2 = 0", "value": "1.007 ± 0.021", "unit": "mPa·s"},
      {"measurement": "viscosity", "setting": "[1]; 298.15 K, m2 = 0", "value": "0.893 ± 0.019", "unit": "mPa·s"},
      {"measurement": "viscosity", "setting": "[1]; 303.15 K, m2 = 0", "value": "0.797 ± 0.017", "unit": "mPa·s"},
      {"measurement": "viscosity", "setting": "[1]; 308.15 K, m2 = 0", "value": "0.719 ± 0.015", "unit": "mPa·s"}
    ]},
    {"molecule": "O", "note": "[water] + NCCC(=O)O", "values": [
      {"measurement": "viscosity", "setting": "[1]; 288.15 K, m2 = 0", "value": "1.146 ± 0.024", "unit": "mPa·s"},
      {"measurement": "viscosity", "setting": "[1]; 293.15 K, m2 = 0", "value": "1.004 ± 0.021", "unit": "mPa·s"},
      {"measurement": "viscosity", "setting": "[1]; 298.15 K, m2 = 0", "value": "0.8929 ± 0.019", "unit": "mPa·s"},
      {"measurement": "viscosity", "setting": "[1]; 303.15 K, m2 = 0", "value": "0.7965 ± 0.017", "unit": "mPa·s"},
      {"measurement": "viscosity", "setting": "[1]; 308.15 K, m2 = 0", "value": "0.7187 ± 0.015", "unit": "mPa·s"}
    ]},
    {"molecule": "O", "note": "[water] + NCCCC(=O)O", "values": [
      {"measurement": "viscosity", "setting": "[1]; 288.15 K, m2 = 0", "value": "1.146 ± 0.024", "unit": "mPa·s"},
      {"measurement": "viscosity", "setting": "[1]; 293.15 K, m2 = 0", "value": "1.004 ± 0.021", "unit": "mPa·s"},
      {"measurement": "viscosity", "setting": "[1]; 298.15 K, m2 = 0", "value": "0.893 ± 0.019", "unit": "mPa·s"},
      {"measurement": "viscosity", "setting": "[1]; 303.15 K, m2 = 0", "value": "0.797 ± 0.017", "unit": "mPa·s"},
      {"measurement": "viscosity", "setting": "[1]; 308.15 K, m2 = 0", "value": "0.719 ± 0.015", "unit": "mPa·s"}
    ]},
    {"molecule": "O", "note": "[water] + NCCCCC(=O)O", "values": [
      {"measurement": "viscosity", "setting": "[1]; 288.15 K, m2 = 0", "value": "1.146 ± 0.024", "unit": "mPa·s"},
      {"measurement": "viscosity", "setting": "[1]; 293.15 K, m2 = 0", "value": "1.004 ± 0.021", "unit": "mPa·s"},
      {"measurement": "viscosity", "setting": "[1]; 298.15 K, m2 = 0", "value": "0.893 ± 0.019", "unit": "mPa·s"},
      {"measurement": "viscosity", "setting": "[1]; 303.15 K, m2 = 0", "value": "0.797 ± 0.017", "unit": "mPa·s"},
      {"measurement": "viscosity", "setting": "[1]; 308.15 K, m2 = 0", "value": "0.719 ± 0.015", "unit": "mPa·s"}
    ]},
    {"molecule": "O", "note": "[water] + NCCCCCC(=O)O", "values": [
      {"measurement": "viscosity", "setting": "[1]; 288.15 K, m2 = 0", "value": "1.146 ± 0.024", "unit": "mPa·s"},
      {"measurement": "viscosity", "setting": "[1]; 293.15 K, m2 = 0", "value": "1.004 ± 0.021", "unit": "mPa·s"},
      {"measurement": "viscosity", "setting": "[1]; 298.15 K, m2 = 0", "value": "0.893 ± 0.019", "unit": "mPa·s"},
      {"measurement": "viscosity", "setting": "[1]; 303.15 K, m2 = 0", "value": "0.797 ± 0.017", "unit": "mPa·s"},
      {"measurement": "viscosity", "setting": "[1]; 308.15 K, m2 = 0", "value": "0.719 ± 0.015", "unit": "mPa·s"}
    ]}
  ]
}
